Results reported in ChEMBL document CHEMBL1201862, “PubChem BioAssay data set” (2004).
The source made the active and inactive calls.

Tests used:
[1] = target: Delta-type opioid receptor (Homo sapiens, UniProt P41143); experiment: Counterscreen for agonists of heterodimerization of the mu 1 (OPRM1) and delta 1 (OPRD1) opioid receptors: Luminescence-based cell-based high throughput dose response assay to identify agonists of OPRD1 homodimerization. [Related pubchem assays (depositor defined):AID504326, AID504355, AID504692, AID504904, AID504905]; assay type: functional
Mu-type opioid receptor = Mu-type opioid receptor (Homo sapiens, UniProt P35372); experiment: Counterscreen for agonists of heterodimerization of the mu 1 (OPRM1) and delta 1 (OPRD1) opioid receptors: Luminescence-based cell-based high throughput dose response assay to identify agonists of OPRM1 homodimerization.; assay type: functional;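 note: U2OS cells expressing OPRM1 and beta-arrestin as split beta-galactosidase partners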
[2] = target: T1, Short transient receptor potential channel 4 (Mus musculus, UniProt Q9QUQ5); experiment: mouse TRPC4 channel activators, dose response, cell-based, HEK293 TRPC4/mu-opioid, Fluo-4 calcium (AID 434937); assay type: functional
T1 sequence (Q9QUQ5 whole entry): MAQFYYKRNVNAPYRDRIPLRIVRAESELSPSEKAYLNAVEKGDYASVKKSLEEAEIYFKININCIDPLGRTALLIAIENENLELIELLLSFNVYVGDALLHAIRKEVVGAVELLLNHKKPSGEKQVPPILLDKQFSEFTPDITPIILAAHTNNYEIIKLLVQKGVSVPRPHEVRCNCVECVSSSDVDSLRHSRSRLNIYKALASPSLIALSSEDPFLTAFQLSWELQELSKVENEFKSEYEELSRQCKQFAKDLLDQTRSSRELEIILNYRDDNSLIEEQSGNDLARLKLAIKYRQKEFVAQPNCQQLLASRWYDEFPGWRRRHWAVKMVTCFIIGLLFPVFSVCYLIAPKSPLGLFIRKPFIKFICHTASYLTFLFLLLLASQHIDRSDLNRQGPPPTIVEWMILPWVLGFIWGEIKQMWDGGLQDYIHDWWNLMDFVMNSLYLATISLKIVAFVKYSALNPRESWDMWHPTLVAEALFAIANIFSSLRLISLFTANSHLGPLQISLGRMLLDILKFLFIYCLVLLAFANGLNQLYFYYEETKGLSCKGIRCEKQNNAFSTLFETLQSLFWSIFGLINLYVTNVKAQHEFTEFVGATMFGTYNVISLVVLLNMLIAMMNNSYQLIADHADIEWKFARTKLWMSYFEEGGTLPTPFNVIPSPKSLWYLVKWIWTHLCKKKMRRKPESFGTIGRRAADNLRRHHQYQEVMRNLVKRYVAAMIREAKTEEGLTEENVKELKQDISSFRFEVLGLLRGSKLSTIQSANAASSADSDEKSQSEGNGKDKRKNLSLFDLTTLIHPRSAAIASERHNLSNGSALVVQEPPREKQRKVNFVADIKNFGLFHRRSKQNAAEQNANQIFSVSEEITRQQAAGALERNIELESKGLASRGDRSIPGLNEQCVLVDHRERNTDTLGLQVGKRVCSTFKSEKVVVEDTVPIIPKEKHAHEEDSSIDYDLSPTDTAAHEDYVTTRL

[3] = target: 5-hydroxytryptamine receptor 5A (Homo sapiens, UniProt P47898); experiment: Counterscreen for agonists of OPRM1-OPRD1 heterodimerization: luminescence-based cell-based high throughput dose response assay to identify agonists of 5-hydroxytryptamine (serotonin) 5A receptor (HTR5A). [Related pubchem assays (depositor defined):AID504326, AID504355, AID504692, AID504904, AID504905]; assay type: functional
cells [4] = assay type: functional, cell-based
Protein RecA = target: T2, Protein RecA (Mycobacterium tuberculosis, UniProt P9WHJ3); experiment: Fluorescence Cell-Free Homogeneous Dose Retest to Identify Inhibitors of RecA-Intein Splicing Activity. [Related pubchem assays (depositor defined):AID2097, AID2223, AID489010, AID492950]; assay type: functional
T2 sequence (P9WHJ3 whole entry): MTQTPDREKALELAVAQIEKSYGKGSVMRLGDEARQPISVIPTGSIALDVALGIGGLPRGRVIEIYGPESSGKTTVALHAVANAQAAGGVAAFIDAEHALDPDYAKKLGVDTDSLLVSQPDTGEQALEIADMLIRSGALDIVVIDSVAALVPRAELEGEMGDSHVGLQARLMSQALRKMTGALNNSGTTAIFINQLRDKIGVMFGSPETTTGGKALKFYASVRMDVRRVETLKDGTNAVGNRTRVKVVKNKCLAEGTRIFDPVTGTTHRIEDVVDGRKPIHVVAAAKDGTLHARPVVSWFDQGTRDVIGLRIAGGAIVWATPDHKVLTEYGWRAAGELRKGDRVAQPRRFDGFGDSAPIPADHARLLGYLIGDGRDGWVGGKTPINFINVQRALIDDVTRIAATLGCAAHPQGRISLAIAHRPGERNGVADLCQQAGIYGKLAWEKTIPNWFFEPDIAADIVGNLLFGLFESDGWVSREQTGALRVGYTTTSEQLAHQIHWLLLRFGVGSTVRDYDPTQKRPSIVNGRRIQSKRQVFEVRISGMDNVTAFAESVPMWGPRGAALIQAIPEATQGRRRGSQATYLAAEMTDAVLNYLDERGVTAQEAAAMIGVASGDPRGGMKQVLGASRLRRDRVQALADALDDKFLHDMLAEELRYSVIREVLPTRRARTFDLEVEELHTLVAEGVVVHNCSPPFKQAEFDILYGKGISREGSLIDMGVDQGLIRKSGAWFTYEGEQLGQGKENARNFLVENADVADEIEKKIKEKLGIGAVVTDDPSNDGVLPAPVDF

[5] = control 3'UTR Renilla luciferase suppression, dose response, counter-screen for Shn3 inhibitor project, cell-based, Clone20-Shn3RL, cherry-picked (AID 624133); assay type: functional
CAAX prenyl protease 2 [6] = target: T3, CAAX prenyl protease 2 (Homo sapiens, UniProt Q9Y256); experiment: human Rce1 protease inhibitors, dose response, biochemical, yeast membranes, quenched-peptide fluorescence, cherry-pick (AID 588849)
T3 sequence (Q9Y256 whole entry): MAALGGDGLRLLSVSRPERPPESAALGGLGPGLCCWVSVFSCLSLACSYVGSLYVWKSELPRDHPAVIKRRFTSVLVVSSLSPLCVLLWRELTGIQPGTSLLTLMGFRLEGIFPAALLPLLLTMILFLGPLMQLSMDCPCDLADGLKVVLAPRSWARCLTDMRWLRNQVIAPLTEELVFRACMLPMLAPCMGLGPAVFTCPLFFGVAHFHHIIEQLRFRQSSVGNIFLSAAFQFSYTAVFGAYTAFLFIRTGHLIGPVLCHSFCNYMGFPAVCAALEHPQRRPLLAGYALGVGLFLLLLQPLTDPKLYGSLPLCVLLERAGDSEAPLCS

Trypsin = Trypsin (Sus scrofa, UniProt P00761); experiment: porcine trypsin inhibitors, dose response, selectivity assay for Rce1 protease inhibitor project, biochemical, quenched peptide fluorescence, cherry-pick (AID 488789)
CAAX prenyl protease 2 [7] = target: T4, CAAX prenyl protease 2 (Saccharomyces cerevisiae S288c, UniProt Q03530); assay type: biochemical
T4 sequence (Q03530 whole entry): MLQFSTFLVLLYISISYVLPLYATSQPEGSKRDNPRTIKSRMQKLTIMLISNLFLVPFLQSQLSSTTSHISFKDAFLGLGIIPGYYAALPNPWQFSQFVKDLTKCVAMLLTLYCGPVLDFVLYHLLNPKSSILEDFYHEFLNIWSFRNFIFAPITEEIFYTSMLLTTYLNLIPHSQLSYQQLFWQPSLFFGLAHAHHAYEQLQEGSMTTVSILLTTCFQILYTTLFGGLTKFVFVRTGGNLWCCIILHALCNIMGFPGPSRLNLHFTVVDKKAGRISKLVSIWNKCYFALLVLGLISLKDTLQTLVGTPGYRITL

[8] = HepG2 cell cytotoxicity, dose response, cytotoxicity control for Shn3 inhibitor project, CellTiter-Glo, cherry-picked (AID 624134); assay type: functional, cell-based
cells [9] = assay type: functional, cell-based; remark: listed apart in the source
[10] = target: T5, Replicative DNA helicase DnaB (Mycobacterium tuberculosis, UniProt P9WMR3); experiment: DnaB intein splicing inhibitors, dose response, biochemical, cell-free fluorescence (AID 449749); assay type: functional
T5 sequence (P9WMR3 whole entry): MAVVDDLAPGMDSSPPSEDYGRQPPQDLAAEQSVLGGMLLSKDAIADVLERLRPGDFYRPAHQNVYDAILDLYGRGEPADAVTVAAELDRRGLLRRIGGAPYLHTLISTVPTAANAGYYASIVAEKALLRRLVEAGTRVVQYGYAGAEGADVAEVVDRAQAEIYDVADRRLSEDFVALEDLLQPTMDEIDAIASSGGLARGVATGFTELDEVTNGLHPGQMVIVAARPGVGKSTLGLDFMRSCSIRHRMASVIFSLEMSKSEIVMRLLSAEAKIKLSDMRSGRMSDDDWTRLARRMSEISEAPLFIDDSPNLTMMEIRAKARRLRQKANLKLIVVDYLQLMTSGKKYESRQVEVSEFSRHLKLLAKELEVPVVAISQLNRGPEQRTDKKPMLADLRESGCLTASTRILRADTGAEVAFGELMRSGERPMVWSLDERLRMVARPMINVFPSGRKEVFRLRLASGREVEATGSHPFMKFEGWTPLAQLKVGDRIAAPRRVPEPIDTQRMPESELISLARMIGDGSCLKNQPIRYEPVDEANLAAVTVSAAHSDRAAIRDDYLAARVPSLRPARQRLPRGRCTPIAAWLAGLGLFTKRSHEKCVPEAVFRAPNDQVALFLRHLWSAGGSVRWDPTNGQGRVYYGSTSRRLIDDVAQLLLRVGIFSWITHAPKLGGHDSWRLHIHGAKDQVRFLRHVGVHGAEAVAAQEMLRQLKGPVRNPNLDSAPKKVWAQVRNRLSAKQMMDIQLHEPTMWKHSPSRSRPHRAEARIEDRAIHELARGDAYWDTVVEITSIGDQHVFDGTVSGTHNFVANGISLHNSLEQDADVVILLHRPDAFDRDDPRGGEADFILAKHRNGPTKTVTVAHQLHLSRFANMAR

[11] = Shn3 3'UTR reporter inhibitors, dose response, cell-based, Clone20 osteoblasts, firefly luciferase, cherry-picked (AID 624132); assay type: functional;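 note: firefly luciferase luminescence from reporter carrying the Shn3 3'UTR in osteoblasts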
[12] = target: T6, Dual specificity protein phosphatase 6 (Rattus norvegicus, UniProt Q64346)
T6 sequence (Q64346 whole entry): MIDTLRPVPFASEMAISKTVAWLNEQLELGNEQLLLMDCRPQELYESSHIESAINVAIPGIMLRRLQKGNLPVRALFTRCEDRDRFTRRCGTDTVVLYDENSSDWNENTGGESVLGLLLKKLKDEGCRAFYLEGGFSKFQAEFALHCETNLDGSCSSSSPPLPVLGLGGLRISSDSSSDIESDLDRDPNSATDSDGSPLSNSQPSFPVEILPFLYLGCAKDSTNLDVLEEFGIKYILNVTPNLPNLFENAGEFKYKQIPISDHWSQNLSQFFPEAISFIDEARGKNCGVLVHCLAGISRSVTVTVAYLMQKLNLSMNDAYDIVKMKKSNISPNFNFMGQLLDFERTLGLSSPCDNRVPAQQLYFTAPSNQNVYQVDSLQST

[13] = target: T7, Tyrosine-protein phosphatase non-receptor type 7 (Homo sapiens, UniProt P35236); assay type: functional
T7 sequence (P35236 whole entry): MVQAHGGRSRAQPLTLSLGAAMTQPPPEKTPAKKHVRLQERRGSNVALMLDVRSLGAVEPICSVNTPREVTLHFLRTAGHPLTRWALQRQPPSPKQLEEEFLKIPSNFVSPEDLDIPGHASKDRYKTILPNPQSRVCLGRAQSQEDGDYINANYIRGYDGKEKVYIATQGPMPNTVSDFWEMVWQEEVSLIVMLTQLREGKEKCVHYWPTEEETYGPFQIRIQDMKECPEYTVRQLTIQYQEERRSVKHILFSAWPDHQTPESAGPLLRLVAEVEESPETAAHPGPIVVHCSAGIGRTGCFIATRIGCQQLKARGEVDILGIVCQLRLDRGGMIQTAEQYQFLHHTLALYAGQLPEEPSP

[14] = target: Glyceraldehyde-3-phosphate dehydrogenase (Homo sapiens, UniProt P04406)
[15] = target: T6, Dual specificity protein phosphatase 6; assay type: functional
[16] = target: T8, Ubiquitin-conjugating enzyme E2 N (Homo sapiens, UniProt P61088); assay type: functional;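 note: Dose-response confirmation in a TR-FRET assay detecting UBC13-driven polyubiquitin chain formation, inhibition measured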
T8 sequence (P61088 whole entry): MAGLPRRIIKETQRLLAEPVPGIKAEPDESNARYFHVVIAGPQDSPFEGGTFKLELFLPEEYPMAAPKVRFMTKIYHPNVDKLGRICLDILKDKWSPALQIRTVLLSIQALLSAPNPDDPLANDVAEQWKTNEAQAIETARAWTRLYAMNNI

Chain of Glyceraldehyde-3-phosphate dehydrogenase (P04406 whole entry): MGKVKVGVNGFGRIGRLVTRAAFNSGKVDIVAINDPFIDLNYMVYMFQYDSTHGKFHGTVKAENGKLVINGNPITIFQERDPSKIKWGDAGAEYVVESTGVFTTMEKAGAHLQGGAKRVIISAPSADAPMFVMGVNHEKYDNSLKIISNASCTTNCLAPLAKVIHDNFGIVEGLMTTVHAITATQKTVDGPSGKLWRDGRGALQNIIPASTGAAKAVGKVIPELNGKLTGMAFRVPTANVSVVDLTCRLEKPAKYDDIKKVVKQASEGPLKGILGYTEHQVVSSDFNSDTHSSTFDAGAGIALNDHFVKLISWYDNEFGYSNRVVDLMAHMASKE
Chain of 5-hydroxytryptamine receptor 5A (P47898 whole entry): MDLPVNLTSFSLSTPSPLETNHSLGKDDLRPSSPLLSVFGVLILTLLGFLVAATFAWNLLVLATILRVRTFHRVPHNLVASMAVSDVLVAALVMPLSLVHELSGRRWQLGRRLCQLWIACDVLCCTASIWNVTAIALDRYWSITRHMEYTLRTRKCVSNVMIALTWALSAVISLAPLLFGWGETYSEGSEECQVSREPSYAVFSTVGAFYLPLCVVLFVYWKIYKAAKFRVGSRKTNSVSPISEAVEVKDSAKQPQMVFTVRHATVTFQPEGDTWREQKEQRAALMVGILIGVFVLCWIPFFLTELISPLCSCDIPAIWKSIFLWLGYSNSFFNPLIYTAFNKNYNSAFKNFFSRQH
Chain of Delta-type opioid receptor (P41143 whole entry): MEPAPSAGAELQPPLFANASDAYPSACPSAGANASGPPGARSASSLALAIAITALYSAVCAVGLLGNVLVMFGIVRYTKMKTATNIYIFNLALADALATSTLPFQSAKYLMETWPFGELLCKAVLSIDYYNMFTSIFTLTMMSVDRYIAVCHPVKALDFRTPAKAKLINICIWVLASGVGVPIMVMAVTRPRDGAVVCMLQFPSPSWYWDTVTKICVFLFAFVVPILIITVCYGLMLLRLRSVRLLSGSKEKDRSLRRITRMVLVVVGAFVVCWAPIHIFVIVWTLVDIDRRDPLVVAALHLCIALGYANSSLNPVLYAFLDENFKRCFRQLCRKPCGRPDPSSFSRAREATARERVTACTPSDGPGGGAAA
Chain of Mu-type opioid receptor (P35372 whole entry): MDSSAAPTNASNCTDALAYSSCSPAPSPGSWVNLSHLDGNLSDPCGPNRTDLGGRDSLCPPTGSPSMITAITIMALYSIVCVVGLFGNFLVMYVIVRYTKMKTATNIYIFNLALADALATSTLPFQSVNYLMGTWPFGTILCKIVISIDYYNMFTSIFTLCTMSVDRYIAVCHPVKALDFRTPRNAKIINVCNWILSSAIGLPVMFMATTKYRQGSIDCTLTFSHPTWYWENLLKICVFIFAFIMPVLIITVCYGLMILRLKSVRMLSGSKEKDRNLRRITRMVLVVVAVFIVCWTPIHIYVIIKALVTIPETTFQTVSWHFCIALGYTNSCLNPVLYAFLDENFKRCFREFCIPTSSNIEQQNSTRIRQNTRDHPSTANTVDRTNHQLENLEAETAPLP
Chain of Trypsin (P00761 whole entry): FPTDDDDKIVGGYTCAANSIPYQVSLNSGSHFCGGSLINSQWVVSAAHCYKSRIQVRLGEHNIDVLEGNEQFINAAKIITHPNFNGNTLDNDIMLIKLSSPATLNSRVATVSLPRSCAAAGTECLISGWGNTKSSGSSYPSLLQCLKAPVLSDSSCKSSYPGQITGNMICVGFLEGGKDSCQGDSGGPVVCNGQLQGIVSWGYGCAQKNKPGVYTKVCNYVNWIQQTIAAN

| Compound | EC50 [1] | EC50 (Mu-type opioid receptor) | EC50 [3] | IC50 [12] | IC50 [13] | IC50 [14] | IC50 [15] | also measured |
| --- | --- | --- | --- | --- | --- | --- | --- | --- |
| CN(C)c1ccc(C(CNC(=O)Cc2cccc3ccccc23)N(C)C)cc1 (stereo not given) | > 92.4 µM (inactive) | > 92.4 µM (inactive) | > 92.4 µM (inactive) |  |  |  |  | EC50 [2]: 944 nM (active) |
| COc1ccccc1-c1cc(C(F)(F)F)nc(S(=O)(=O)CCCC(=O)NCc2ccc(F)cc2)n1 |  |  |  |  |  |  |  | EC50 (cells [4]): > 350 µM (not active); EC50 (Protein RecA): 3.61 µM (active); AC50 [5]: 23.6 µM (active); AC50 (CAAX prenyl protease 2 [6]): 10.8 µM (active); AC50 (Trypsin): 2.3 µM (active); AC50 (CAAX prenyl protease 2 [7]): 7.9 µM (active); AC50 [8]: > 70 µM (inactive); EC50 (cells [9]): > 350 µM (not active); AC50 [10]: 5.72 µM (active); AC50 [11]: 4.43 µM (active) |
| COCCCNc1nc(=O)n(-c2ccc(F)cc2)c(=O)[nH]1 |  |  |  | > 100 µM (inactive) | > 100 µM (not active) | > 100 µM (not active) | > 100 µM (inactive) |  |
| Cn1c(=O)n(CC(N)=O)c(=O)n(-c2ccccc2)c1=O |  |  |  | > 100 µM (inactive) | > 100 µM (not active) | > 100 µM (not active) | > 100 µM (inactive) |  |
| CC[C@@H](C)[C@@H]1CN([C@@H](CN2CCC[C@H]2CN2C(N)=NC[C@H]2C(C)C)C(C)C)C(=N)N1CCc1ccc(Cl)c(Cl)c1 | > 92.5 µM (inactive) | 10.9 µM (inactive) | > 92.5 µM (inactive) |  |  |  |  | IC50 [16]: > 20 µM (inactive) |
| Clc1cccc(Cl)c1COc1nnc(-c2cccs2)c(-c2cccs2)n1 |  |  |  | > 100 µM (inactive) | > 100 µM (not active) | > 100 µM (not active) | > 100 µM (inactive) |  |
